From PMC6934227, “GPR101 mediates the pro-resolving actions of RvD5n-3 DPA in arthritis and infections” (The Journal of Clinical Investigation, 2019)

What was measured:
Assay type in all cases: cell-based
GPR32 (DRV1) [1] = target: T1, GPR32 (DRV1) (Homo sapiens, UniProt O75388); test: PathHunter β-arrestin recruitment in CHO cells (reference agonist)
T1 construct: CHO cells stably expressing human recombinant GPR32 coupled to a β-arrestin reporter system

GPR32 (DRV1) [2] = target: T1, GPR32 (DRV1); test: PathHunter β-arrestin recruitment in CHO cells
GPR101 = target: T2, GPR101 (Homo sapiens, UniProt Q96P66); test: tritiated radioligand saturation binding on GPR101-overexpressing CHO cells (plus homologous competition, IC50 […])
T2 construct: GPR101-overexpressing CHO cells
T2 sequence (Q96P66 1-508): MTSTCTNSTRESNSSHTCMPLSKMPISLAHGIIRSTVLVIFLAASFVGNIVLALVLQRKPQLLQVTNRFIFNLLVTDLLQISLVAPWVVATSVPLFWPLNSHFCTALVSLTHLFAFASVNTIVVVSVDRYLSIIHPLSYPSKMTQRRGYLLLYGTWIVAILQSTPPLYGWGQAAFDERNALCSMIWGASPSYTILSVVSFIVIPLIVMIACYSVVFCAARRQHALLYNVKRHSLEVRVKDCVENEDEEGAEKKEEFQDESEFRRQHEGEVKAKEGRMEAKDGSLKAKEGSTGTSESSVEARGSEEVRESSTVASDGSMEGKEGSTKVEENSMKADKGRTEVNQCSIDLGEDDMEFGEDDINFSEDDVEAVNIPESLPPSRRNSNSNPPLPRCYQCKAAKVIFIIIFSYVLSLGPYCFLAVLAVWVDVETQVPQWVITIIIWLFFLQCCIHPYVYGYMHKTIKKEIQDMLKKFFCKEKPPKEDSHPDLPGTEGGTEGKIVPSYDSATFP
Source text: These experiments yielded a calculated KD

T1 sequence (O75388 whole entry): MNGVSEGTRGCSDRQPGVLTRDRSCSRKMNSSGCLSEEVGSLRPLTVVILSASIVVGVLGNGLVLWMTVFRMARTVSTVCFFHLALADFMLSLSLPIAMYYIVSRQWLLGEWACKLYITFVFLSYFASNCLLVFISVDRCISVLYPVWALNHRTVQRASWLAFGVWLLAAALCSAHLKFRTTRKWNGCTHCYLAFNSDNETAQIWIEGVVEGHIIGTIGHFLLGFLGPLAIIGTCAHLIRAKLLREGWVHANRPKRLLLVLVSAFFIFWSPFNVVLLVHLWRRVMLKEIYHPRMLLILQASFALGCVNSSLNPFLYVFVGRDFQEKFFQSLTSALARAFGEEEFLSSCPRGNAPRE

Row | EC50 (GPR32 (DRV1) [1]) | EC50 (GPR32 (DRV1) [2]) | Kd (GPR101) | SMILES
1 | ~0.0015 nM |  |  | CC/C=C\C[C@H](O)/C=C/C=C\C=C\C=C\[C@@H](O)[C@@H](O)C/C=C\CCC(=O)O [RvD1, 7S,8R,17S-trihydroxy-4Z,9E,11E,13Z,15E,19Z-docosahexaenoic acid]
2 |  | ~0.014 nM | ~6.9 nM | CC/C=C\C[C@H](O)/C=C/C=C\C/C=C\C=C\[C@@H](O)CCCCCC(=O)O [RvD5n-3 DPA, 7S,17S-dihydroxy-8E,10Z,13Z,15E,19Z-docosapentaenoic acid]
